Measured values from paper PMC3975887, “The structures of cytosolic and plastid-located glutamine synthetases from Medicago truncatula reveal a common and dynamic architecture” (Acta Crystallographica Section D: Biological Crystallography, 2014).
Read-outs that look alike come from different tables or passages of the source.

Legend:
[1] = target: T1, M. truncatula GSII-1a (Medicago truncatula, UniProt O04998); assay: GS synthetase reaction inhibition, GSII-1a; type: biochemical
T1 sequence (O04998 1-356): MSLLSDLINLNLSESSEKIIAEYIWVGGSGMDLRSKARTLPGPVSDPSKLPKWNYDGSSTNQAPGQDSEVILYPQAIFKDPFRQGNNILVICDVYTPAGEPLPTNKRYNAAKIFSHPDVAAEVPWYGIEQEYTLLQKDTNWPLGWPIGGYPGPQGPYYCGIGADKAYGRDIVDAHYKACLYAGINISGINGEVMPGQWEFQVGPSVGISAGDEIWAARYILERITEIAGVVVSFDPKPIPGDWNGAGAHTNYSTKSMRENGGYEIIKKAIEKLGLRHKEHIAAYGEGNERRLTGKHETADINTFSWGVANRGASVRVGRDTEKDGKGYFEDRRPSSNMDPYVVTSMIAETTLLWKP
Procedure: (§1) The activities of the His-tagged GS isoenzymes (GSII-1a, GSII-1b, GSII-2a and GSII-2b) were determined by quantifying the γ-glutamyl hydroxamate produced by the synthetase reaction (GSs) as described previously (Cullimore & Sims, 1981[▶]; Cullimore et al., 1982[▶]). The reactions started by the addition of 10 µg purified His-tagged GS isoenzyme to the assay mixture (100 mM Tris buffer pH 7.8, 100 mM glutamate, 8 mM ATP, 8 mM hydroxylamine, 16 mM MgSO4) were allowed to proceed at 30°C for 15 min and were stopped by adding one volume of stop solution (0.37 M FeCl3, 0.67 M HCl, 0.2 M TCA). GS specific activity was determined as the amount of γ-glutamyl hydroxamate produced per minute per milligram of purified protein (µmol min^−1 mg^−1). GS inhibition was evaluated by adding increasing concentrations of either phosphinothricin (PPT; Fluka; 0, 0.005, 0.01, 0.05, 0.1, 0.5, 1, 1.5, 2.5, 5, 10 and 20 mM) or methionine-S-sulfoximine (MSO; Sigma; 0, 0.5, 1, 1.5, 2.5, 5, 10, 20, 40 and 60 mM) to the reaction mixture. GS inhibition assays were performed at two different glutamate concentrations (20 and 100 mM). IC50 was calculated by nonlinear regression using the LogIC50 equation of GraphPad Prism5 (GraphPad Software).

[2] = target: T2, M. truncatula GSII-1b (Medicago truncatula, UniProt O04999); assay: GS synthetase reaction inhibition, GSII-1b; type: biochemical
T2 sequence (O04999 1-356): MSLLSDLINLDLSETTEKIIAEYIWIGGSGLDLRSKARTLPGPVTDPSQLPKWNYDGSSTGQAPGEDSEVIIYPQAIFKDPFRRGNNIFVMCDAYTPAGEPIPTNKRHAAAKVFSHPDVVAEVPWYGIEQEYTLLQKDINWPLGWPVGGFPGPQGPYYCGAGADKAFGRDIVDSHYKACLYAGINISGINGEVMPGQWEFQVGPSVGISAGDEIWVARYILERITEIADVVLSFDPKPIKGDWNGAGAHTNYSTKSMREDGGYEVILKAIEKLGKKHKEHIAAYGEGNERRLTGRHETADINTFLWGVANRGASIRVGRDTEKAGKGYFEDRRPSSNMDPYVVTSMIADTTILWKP
Procedure: as §1

[3] = target: T3, M. truncatula GSII-2a (Medicago truncatula, UniProt Q84UC1); assay: GS synthetase reaction inhibition, GSII-2a; type: biochemical
T3 sequence (Q84UC1 50-428): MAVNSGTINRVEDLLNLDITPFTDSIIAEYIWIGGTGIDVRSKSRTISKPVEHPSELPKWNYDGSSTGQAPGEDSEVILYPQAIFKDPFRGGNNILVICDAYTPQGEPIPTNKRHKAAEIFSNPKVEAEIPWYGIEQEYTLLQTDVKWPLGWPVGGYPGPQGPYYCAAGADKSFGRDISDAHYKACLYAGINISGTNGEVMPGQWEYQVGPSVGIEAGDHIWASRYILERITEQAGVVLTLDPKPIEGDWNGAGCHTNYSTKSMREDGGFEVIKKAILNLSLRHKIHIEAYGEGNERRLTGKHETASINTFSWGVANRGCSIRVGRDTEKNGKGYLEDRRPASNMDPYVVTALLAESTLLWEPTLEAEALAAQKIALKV
Procedure: as §1

[4] = target: T4, M. truncatula GSII-2b (Medicago truncatula, UniProt E1ANG4); assay: GS synthetase reaction inhibition, GSII-2b; type: biochemical
T4 sequence (E1ANG4 50-428): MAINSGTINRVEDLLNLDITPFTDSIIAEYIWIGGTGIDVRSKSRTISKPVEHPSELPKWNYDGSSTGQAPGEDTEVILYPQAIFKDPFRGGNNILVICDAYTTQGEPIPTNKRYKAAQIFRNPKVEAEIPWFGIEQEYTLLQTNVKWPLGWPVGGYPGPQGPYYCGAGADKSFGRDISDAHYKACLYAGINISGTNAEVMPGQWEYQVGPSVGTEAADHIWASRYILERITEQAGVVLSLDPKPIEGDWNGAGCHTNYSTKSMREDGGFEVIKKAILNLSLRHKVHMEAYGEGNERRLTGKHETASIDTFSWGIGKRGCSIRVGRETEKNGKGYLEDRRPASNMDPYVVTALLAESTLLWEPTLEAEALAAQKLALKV
Procedure: as §1

[5] = system: plant GSII; set-up: method as in Evstigneeva et al., 2003; conditions: plant GSII overall; ref Evstigneeva et al., 2003; cited from earlier work
[6] = target: Medicago truncatula plastid-located glutamine synthetase GSII-2a (mature polypeptide) (Medicago truncatula); assay: native MS; nondenaturing conditions, ammonium acetate buffer pH 7.5, nano-electrospray, capillary voltage 1700 V, cone potential 50 V
[7] = target: Medicago truncatula plastid-located glutamine synthetase GSII-2a (mature polypeptide) (Medicago truncatula); assay: native MS; high activation conditions: collision energy increased from 100 to 200 V; ammonium acetate buffer pH 7.5; decamer to pentamers in the gas phase
[8] = target: Medicago truncatula plastid-located glutamine synthetase GSII-2a (mature polypeptide) (Medicago truncatula); assay: as above; remark: listed apart in the source
[9] = target: Medicago truncatula plastid-located glutamine synthetase GSII-2a (mature polypeptide) (Medicago truncatula); assay: cryo-EM structure; purified GSII-2a 0.3 mg/ml vitrified; single-particle reconstruction with D5 symmetry applied, 3117 side-view particles with parallel rings, 20 Å
[10] = target: the molecule itself; assay: crystal structure; apo form, space group P2_(1), decamer in the asymmetric unit, 2.35 Å
[11] = MSO titration using 20 mM glutamate, His-tagged enzyme, read-out: IC50 (concentration of inhibitor reducing the GS activity by 50%)
[12] = standard GS assay conditions (100 mM glutamate)

Q: For `CS(=N)(=O)CC[C@H](N)C(=O)O` (some centres unmarked) [MSO, methionine-S-sulfoximine], which IC50 [1, 11] is on record?
A: The IC50 was 9500 µM.

Q: And the “GS inhibition under the standard GS assay conditions” value (“GS inhibition” for short) [1, 12]?
A: Its value is “poorly inhibited”.

Q: What about the IC50 [2, 11] of the same molecule?
A: The IC50 was 2200 µM.

Q: And the “GS inhibition” value [2, 12]?
A: The value was “poorly inhibited”.

Q: And the IC50 [3, 11]?
A: The IC50 was 3600 µM.

Q: And the “GS inhibition” value [3, 12]?
A: Its value is “poorly inhibited”.

Q: What about the “GS inhibition” value [4, 12] of the same molecule?
A: The value was “poorly inhibited”.

Q: Which IC50 [1] does the source give for `CP(=O)(O)CC[C@H](N)C(=O)O` [PPT, phosphinothricin] here?
A: Its IC50 is 760 µM.

Q: What about the IC50 [2] of the same molecule?
A: The IC50 was 670 µM.

Q: And the IC50 [3]?
A: The IC50 was 260 µM.

Q: And the IC50 [4]?
A: The IC50 was 720 µM.

Q: And the “times more effectively inhibited by PPT than by MSO” value [5]?
A: Its value is 5–10 times.

Q: With “Medicago truncatula plastid-located glutamine synthetase GSII-2a (mature polypeptide) (enzyme)” as the molecule, how does the stoichiometry N [6] read?
A: Its stoichiometry N is 10.

Q: And the stoichiometry N [7]?
A: Its stoichiometry N is 5.

Q: And the stoichiometry N [8]?
A: The stoichiometry N was 10.

Q: What about the stoichiometry N [9] of the same molecule?
A: The stoichiometry N was 10.

B1: Medicago truncatula cytosolic glutamine synthetase GSII-1a (enzyme, UniProt O04998 1-356, looked up)
chain: MSLLSDLINLNLSESSEKIIAEYIWVGGSGMDLRSKARTLPGPVSDPSKLPKWNYDGSSTNQAPGQDSEVILYPQAIFKDPFRQGNNILVICDVYTPAGEPLPTNKRYNAAKIFSHPDVAAEVPWYGIEQEYTLLQKDTNWPLGWPIGGYPGPQGPYYCGIGADKAYGRDIVDAHYKACLYAGINISGINGEVMPGQWEFQVGPSVGISAGDEIWAARYILERITEIAGVVVSFDPKPIPGDWNGAGAHTNYSTKSMRENGGYEIIKKAIEKLGLRHKEHIAAYGEGNERRLTGKHETADINTFSWGVANRGASVRVGRDTEKDGKGYFEDRRPSSNMDPYVVTSMIAETTLLWKP
notes: Glutamine synthetase GSII-1a, cytosolic, Medicago truncatula, UniProt O04998; Apo form; also called MtGSII-1a; MtGSII1a; source: recombinant, N-terminally His-tagged; cloning and crystallisation described previously (Seabra et al., 2009); not shown: His tag, N-terminal, kept; copies: 10
Q: With B1 as the molecule, how does the “stoichiometry N” value [10] read?
A: The value was 10.
